Assay results taken from ChEMBL document CHEMBL5506074, “Discovery and Optimization of Tetrahydroisoquinoline Derivatives To Enhance Lysosome Biogenesis as Preclinical Candidates for the Treatment of Alzheimer's Disease” (J Med Chem, 2024).
The source made the active and inactive calls. The calls are words filed in the database; no cut-off is given here.

Tests used:
[1] = Induction of TFEB nuclear translocation in human HeLa cells expressing EGFP at 10 uM measured at 6 hrs by fluorescence microscopic analysis; type: functional
[2] = Tmax in ICR mouse at 10 mg/kg, ip measured upto 24 hrs by LC-MS/MS analysis; type: ADME, organism-based; conditions: in vivo
[3] = Half life in ICR mouse at 20 mg/kg, po measured upto 24 hrs by LC-MS/MS analysis; type: ADME, organism-based; conditions: in vivo
[4] = Cmax in ICR mouse at 10 mg/kg, ip measured upto 24 hrs by LC-MS/MS analysis; type: ADME, organism-based; conditions: in vivo
[5] = AUC (0 to t) in ICR mouse at 10 mg/kg, ip measured upto 24 hrs by LC-MS/MS analysis; type: ADME, organism-based; conditions: in vivo
[6] = AUC (0 to t) in ICR mouse at 5 mg/kg, iv measured upto 24 hrs by LC-MS/MS analysis; type: ADME, organism-based; conditions: in vivo
[7] = Acute toxicity in C57BL/6J mouse assessed as change in body weight at 50 mg/kg, ip measured upto 14 days; type: organism-based; conditions: in vivo, 336 h, time < 14 day
[8] = system: HeLa; test: Induction of lysosome biogenesis in human HeLa cells assessed as increase in number of acidified lysosomes at 10 uM incubated for 24 hrs by LysiTracker red staining based flow cytometry analysis; type: functional, cell-based
[9] = system: HeLa; test: Upregulation of HEXA mRNA expression in human HeLa cells at 10 uM incubated for 24 hrs by qRT-PCR analysis; type: functional, cell-based
[10] = system: HeLa; test: Upregulation of CTSF mRNA expression in human HeLa cells at 10 uM incubated for 24 hrs by qRT-PCR analysis; type: functional, cell-based
[11] = system: HeLa; test: Upregulation of LC3B mRNA expression in human HeLa cells at 10 uM incubated for 24 hrs by qRT-PCR analysis; type: functional, cell-based
[12] = system: HeLa; test: Upregulation of […] mRNA expression in human HeLa cells at 10 uM incubated for 24 hrs by qRT-PCR analysis; type: functional, cell-based
[13] = system: HeLa; test: Upregulation of ATG2A mRNA expression in human HeLa cells at 10 uM incubated for 24 hrs by qRT-PCR analysis; type: functional, cell-based
[14] = system: HeLa; test: Upregulation of CTSF mRNA expression in TFEB knockout human HeLa cells at 10 uM incubated for 24 hrs by qRT-PCR analysis; type: functional, cell-based
[15] = system: HeLa; test: Upregulation of ATG2A mRNA expression in TFEB knockout human HeLa cells at 10 uM incubated for 24 hrs by qRT-PCR analysis; type: functional, cell-based
[16] = system: HeLa; test: Upregulation of UVRAG mRNA expression in TFEB knockout human HeLa cells at 10 uM incubated for 24 hrs by qRT-PCR analysis; type: functional, cell-based
[17] = target: Cyclin-dependent kinase 9 (Homo sapiens) (UniProt P50750); test: Inhibition of CDK9 in human SH-SY5Y cells assessed as decrease in Rpb1 phosphorylation at 10 uM incubated for 6 hrs by immunoblotting analysis; type: cell-based
[18] = system: HeLa; test: Cytotoxicity against human HeLa cells assessed as effect on cell viability at 10 uM incubated for 24 hrs; type: functional, cell-based
[19] = system: Primary neocortical neuron; test: Cytotoxicity against mouse Primary neocortical neuron cells assessed as effect on cell viability at 10 uM incubated for 24 hrs; type: functional, cell-based
[20] = system: HeLa; test: Induction of cell cycle arrest in human HeLa cells assessed as effect on p21 level at 10 uM incubated for 12 hrs by qRT-PCR analysis; type: functional, cell-based
[21] = target: T1, Sodium-dependent dopamine transporter (Homo sapiens, UniProt Q01959); test: Displacement of [3H] dopamine from DAT in HEK293 cells incubated for 1 hr by topcount plate reader analysis; type: cell-based
[22] = target: T1, Sodium-dependent dopamine transporter; test: Displacement of [3H] dopamine from DAT in HEK293 cells assessed as inhibition constant incubated for 1 hr by topcount plate reader analysis; type: cell-based
[23] = target: T1, Sodium-dependent dopamine transporter; test: Displacement of [3H] dopamine from DAT in HEK293 cells incubated for 15 mins by microbeta analysis; type: cell-based
[24] = system: Mus musculus; test: Anti-alzheimer activity against APP/PS1 mouse model assessed as upregulation of LAMP1 mRNA expression in brain at 10 mg/kg, ip administered for 30 days; type: functional, organism-based; conditions: time 30.0 day
[25] = Toxicity in APP/PS1 mouse model assessed as change in body weight at 10 mg/kg, ip administered every other day for 30 days; type: organism-based; conditions: in vivo, 720 h, time 30 day
[26] = system: Mus musculus; test: Anti-alzheimer activity against APP/PS1 mouse model assessed as reduction in amyloid beta plaque in hippocampus at 10 mg/kg, ip administered for 30 days; type: functional; design: scale not given: the % may be the effect or the level left; conditions: time 30 day
[27] = system: Mus musculus; test: Anti-alzheimer activity against APP/PS1 mouse model assessed as reduction in amyloid beta 42 plaque in hippocampus at 10 mg/kg, ip administered for 30 days; type: functional; design: scale not given: the % may be the effect or the level left; conditions: time 30 day
[28] = system: Mus musculus; test: Anti-alzheimer activity against APP/PS1 mouse model assessed as reduction in time to locate hidden platform at 10 mg/kg, ip administered for 30 days by Morris water maze test; type: functional, organism-based; conditions: time 30.0 day
[29] = system: Mus musculus; test: Anti-alzheimer activity against APP/PS1 mouse model assessed as upregulation of CTSB mRNA expression in brain at 10 mg/kg, ip administered for 30 days; type: functional, organism-based; conditions: time 30.0 day
[30] = system: Mus musculus; test: Anti-alzheimer activity against APP/PS1 mouse model assessed as upregulation of CTSF mRNA expression in brain at 10 mg/kg, ip administered for 30 days; type: functional, organism-based; conditions: time 30.0 day
[31] = system: Mus musculus; test: Anti-alzheimer activity against APP/PS1 mouse model assessed as upregulation of WIPL1 mRNA expression in brain at 10 mg/kg, ip administered for 30 days; type: functional, organism-based; conditions: time 30.0 day

T1 sequence (Q01959 whole entry): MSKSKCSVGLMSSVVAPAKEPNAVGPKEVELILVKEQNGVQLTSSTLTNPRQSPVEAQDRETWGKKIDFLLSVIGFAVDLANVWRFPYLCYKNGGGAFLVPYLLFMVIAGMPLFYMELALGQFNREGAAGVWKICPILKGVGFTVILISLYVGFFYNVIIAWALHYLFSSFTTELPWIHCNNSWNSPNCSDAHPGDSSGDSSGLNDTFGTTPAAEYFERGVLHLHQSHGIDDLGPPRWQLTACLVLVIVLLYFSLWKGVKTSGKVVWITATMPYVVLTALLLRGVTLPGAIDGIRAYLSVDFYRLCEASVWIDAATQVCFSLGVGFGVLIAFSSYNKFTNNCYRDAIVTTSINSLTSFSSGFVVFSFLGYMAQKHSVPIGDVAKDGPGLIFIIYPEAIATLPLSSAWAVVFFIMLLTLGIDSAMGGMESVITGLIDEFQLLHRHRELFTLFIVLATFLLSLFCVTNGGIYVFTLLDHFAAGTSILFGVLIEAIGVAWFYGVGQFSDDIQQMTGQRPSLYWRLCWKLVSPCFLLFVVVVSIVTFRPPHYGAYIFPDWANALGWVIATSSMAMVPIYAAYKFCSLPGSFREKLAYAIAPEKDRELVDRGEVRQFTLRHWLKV
Cyclin-dependent kinase 9 (Homo sapiens), sequence (P50750 whole entry): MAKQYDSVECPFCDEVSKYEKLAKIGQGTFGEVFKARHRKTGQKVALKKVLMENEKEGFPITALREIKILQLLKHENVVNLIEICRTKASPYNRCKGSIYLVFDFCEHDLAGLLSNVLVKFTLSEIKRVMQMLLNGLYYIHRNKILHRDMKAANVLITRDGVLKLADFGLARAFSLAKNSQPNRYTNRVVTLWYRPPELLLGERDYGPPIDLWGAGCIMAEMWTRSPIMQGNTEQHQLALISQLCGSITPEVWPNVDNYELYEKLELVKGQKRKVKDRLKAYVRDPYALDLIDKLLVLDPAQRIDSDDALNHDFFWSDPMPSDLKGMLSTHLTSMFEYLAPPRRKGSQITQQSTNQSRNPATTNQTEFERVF

SMILES	Activity [1] [%]	Tmax [2] [h]	half-life [3] [h]	Cmax [4] [ng/mL]	AUC(0-t) at 24 h [5] [ng·h/mL]	Activity [7]	Activity [9]	Activity [10]	Activity [11]	Activity [12]	Activity [13]	Activity [14]	Activity [15]	Activity [16]	inhibition [17]	Activity [18]	Activity [19]	Activity [20]	Activity [24]	Activity [25]	other results
c1ccc2c(CCC3NCCc4cc5c(cc43)OCO5)c[nH]c2c1 (stereo not drawn)	51	0.05	3.1	4720	7640	Non-Toxic	Active	Active	Active	Active	Active	Active	Active	Active	Active	Active	Active	inactive	Active	Non-Toxic	AUC(0-t) at 24 h ([6]; ICR): 3310 ng·h/mL; Activity [8]: Active; IC50 [21]: 2.15 µM; Ki [22]: 0.68 µM; IC50 [23]: 6.34 µM; Activity [26]: 67.5%; Activity [27]: 43.6%; Activity [28]: Active; Activity [29]: Active; Activity [30]: Active; Activity [31]: Active
Fc1ccc2[nH]cc(CCC3c4cc5c(cc4CCN3CC3CCOCC3)OCO5)c2c1 (stereo not drawn)	79	1.35	2.37	146	210	Non-Toxic	Active	Active	Active	Active	Active	Active	Active	Active	Active	Active	Active	inactive	Active	Non-Toxic	AUCt ([6]; iv, 5 mg/kg, 24 h): 409 ng·h/mL; Activity [26]: 69.8%; Activity [27]: 25.4%; Activity [28]: Active; Activity [29]: Active; Activity [30]: Active; Activity [31]: Active
